Experimental data as given in ChEMBL document CHEMBL1149936, “Discovery of selective dopamine D3 ligands: II. 2-[4-[3-(4-aryl-1-piperazinyl)propoxy]phenyl]benzimidazole partial agonists” (Bioorg Med Chem Lett, 1995).
Calls of active or inactive are those of the source. The rule behind the calls is not given here.

How the values were obtained:
D(2) dopamine receptor = D(2) dopamine receptor (Homo sapiens, UniProt P14416); assay: Binding affinity towards cloned human Dopamine D2 receptor in CHO cells using [3H]spiperone as radioligand; format: cell-based
D(3) dopamine receptor = D(3) dopamine receptor (Homo sapiens, UniProt P35462); assay: Binding affinity towards cloned human Dopamine D3 receptor in CHO cells using [3H]spiperone as radioligand; format: cell-based
Rattus norvegicus [1] = assay: Inhibitory effect on exploratory locomotor activity in rats after ip administration; format: functional
Mus musculus = assay: Inhibitory effect on exploratory locomotor activity in mice after ip administration; format: functional
Rattus norvegicus [2] = assay: Inhibitory effect on exploratory locomotor activity in rats at a dose of 30 mg/kg after oral administration; no effect; format: functional, organism-based; design: dose 30 mg/kg

Chain of D(3) dopamine receptor (P35462 whole entry): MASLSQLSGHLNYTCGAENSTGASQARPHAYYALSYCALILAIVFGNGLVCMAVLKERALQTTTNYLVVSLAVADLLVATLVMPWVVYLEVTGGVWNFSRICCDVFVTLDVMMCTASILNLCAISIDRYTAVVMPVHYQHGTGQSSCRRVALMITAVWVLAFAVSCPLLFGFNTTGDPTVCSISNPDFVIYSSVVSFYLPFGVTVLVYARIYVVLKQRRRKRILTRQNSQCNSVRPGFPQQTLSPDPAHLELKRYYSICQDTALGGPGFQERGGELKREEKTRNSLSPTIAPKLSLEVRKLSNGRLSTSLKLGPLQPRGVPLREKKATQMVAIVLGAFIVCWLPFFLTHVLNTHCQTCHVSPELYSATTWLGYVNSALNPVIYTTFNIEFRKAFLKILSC
Chain of D(2) dopamine receptor (P14416 whole entry): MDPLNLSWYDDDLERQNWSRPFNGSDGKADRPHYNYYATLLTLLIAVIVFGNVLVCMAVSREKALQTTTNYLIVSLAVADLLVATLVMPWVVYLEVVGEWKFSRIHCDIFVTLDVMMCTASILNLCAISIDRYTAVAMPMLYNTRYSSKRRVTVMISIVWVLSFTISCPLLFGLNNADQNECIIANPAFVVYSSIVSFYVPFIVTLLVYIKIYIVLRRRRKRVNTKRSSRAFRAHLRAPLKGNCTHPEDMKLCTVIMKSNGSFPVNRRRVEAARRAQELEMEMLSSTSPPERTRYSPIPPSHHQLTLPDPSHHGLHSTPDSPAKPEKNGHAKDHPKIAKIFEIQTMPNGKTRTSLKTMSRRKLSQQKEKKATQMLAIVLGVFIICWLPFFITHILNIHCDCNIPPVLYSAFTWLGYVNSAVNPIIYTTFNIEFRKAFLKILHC

Compound | Ki (D(2) dopamine receptor) | Ki (D(3) dopamine receptor) | ED50 (Rattus norvegicus [1]) | ED50 (Mus musculus) | ED50 (Rattus norvegicus [2])
CN1CCN(CCCOc2ccc(-c3nc4ccccc4[nH]3)cc2)CC1 | > 3330 nM | 2000 nM | – | – | –
COc1ccccc1N1CCN(CCCOc2ccc(-c3nc4ccccc4[nH]3)cc2)CC1 | 8.8 nM | 1.7 nM | – | – | –
Clc1ccc(N2CCN(CCCOc3ccc(-c4nc5ccccc5[nH]4)cc3)CC2)cc1 | 865 nM | 27 nM | – | – | –
Clc1cccc(N2CCN(CCCOc3ccc(-c4nc5ccccc5[nH]4)cc3)CC2)c1 | 1400 nM | 155 nM | – | – | –

Further molecules by falling Ki (D(2) dopamine receptor), results first:

Ki (D(2) dopamine receptor) | Ki (D(3) dopamine receptor) | Compound | ED50 (Rattus norvegicus [1]) | ED50 (Mus musculus) | ED50 (Rattus norvegicus [2])
406 nM | 1.5 nM | c1ccc(N2CCN(CCCOc3ccc(-c4nc5ccccc5[nH]4)cc3)CC2)cc1 | 7.1 mg/kg | 2.3 mg/kg | inactive
293 nM | 130 nM | COc1ccc(N2CCN(CCCOc3ccc(-c4nc5ccccc5[nH]4)cc3)CC2)cc1 | – | – | –
269 nM | – | c1cnc(N2CCN(CCCOc3ccc(-c4nc5ccccc5[nH]4)cc3)CC2)nc1 | – | – | –
126 nM | 18 nM | Clc1ccccc1N1CCN(CCCOc2ccc(-c3nc4ccccc4[nH]3)cc2)CC1 | – | – | –
70 nM | – | c1ccc(N2CCN(CCCOc3ccc(-c4nc5ccccc5[nH]4)cc3)CC2)nc1 | – | – | –
8 nM | – | CCCSc1ccccc1N1CCN(CCCOc2ccc(-c3nc4ccccc4[nH]3)cc2)CC1 | – | – | –
